According to ChEMBL document CHEMBL4507274 (2021):

Assays:
Conditions in all cases: Compound concentration 100.0 nM
[1] = target: Serine/threonine-protein kinase ULK1 (Homo sapiens) (UniProt O75385)
[2] = target: Ephrin type-A receptor 8 (Homo sapiens) (UniProt P29322)
[3] = target: Phosphatidylinositol 4-phosphate 5-kinase type-1 gamma (Homo sapiens) (UniProt O60331)
[4] = target: Tyrosine-protein kinase ITK/TSK (Homo sapiens) (UniProt Q08881)
[5] = target: Protein kinase C theta type (Homo sapiens) (UniProt Q04759)
[6] = target: Dual specificity protein kinase CLK1 (Homo sapiens) (UniProt P49759)
[7] = target: Dual specificity mitogen-activated protein kinase kinase 3 (Homo sapiens) (UniProt P46734)
[8] = test system: Receptor-type tyrosine-protein kinase FLT3 (Homo sapiens), P36888 [N841I]
[9] = target: T1, Tyrosine-protein kinase receptor TYRO3 (Homo sapiens) (UniProt Q06418)
T1 sequence (whole entry): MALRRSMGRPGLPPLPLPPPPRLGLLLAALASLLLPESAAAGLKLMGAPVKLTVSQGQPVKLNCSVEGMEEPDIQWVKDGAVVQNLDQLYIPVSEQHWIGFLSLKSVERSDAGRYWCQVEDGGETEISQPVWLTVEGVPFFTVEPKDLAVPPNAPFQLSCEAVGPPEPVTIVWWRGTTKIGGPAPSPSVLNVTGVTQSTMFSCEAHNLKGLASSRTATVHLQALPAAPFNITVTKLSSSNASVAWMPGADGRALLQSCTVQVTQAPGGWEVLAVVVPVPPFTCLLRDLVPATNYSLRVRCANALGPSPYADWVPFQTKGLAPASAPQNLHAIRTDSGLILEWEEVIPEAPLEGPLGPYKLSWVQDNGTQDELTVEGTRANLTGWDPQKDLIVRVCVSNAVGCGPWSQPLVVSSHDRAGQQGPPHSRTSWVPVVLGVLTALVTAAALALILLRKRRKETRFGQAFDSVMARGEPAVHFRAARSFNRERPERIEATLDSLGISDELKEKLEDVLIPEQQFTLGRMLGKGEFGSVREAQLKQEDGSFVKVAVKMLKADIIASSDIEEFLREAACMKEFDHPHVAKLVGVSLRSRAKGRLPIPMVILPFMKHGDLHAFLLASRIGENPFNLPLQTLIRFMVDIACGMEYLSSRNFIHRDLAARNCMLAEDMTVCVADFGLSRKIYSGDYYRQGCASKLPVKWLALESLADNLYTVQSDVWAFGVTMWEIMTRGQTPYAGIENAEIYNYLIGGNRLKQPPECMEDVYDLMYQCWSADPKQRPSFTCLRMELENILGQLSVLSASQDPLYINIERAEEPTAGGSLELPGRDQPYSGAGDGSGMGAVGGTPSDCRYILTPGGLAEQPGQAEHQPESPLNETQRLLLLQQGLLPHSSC

[10] = target: Tyrosine-protein kinase ABL1 (Homo sapiens) (UniProt P00519)
[11] = target: Glycogen synthase kinase-3 alpha (Homo sapiens) (UniProt P49840)
[12] = target: Mitogen-activated protein kinase 6 (Homo sapiens) (UniProt Q16659)
[13] = target: Calcium/calmodulin-dependent protein kinase type 1D (Homo sapiens) (UniProt Q8IU85)
[14] = target: Mitogen-activated protein kinase kinase kinase 7 (Homo sapiens) (UniProt O43318)
[15] = target: Cyclin-dependent kinase 4 (Homo sapiens) (UniProt P11802)
[16] = target: T2, Protein kinase C iota type (Homo sapiens) (UniProt P41743)
T2 sequence (whole entry): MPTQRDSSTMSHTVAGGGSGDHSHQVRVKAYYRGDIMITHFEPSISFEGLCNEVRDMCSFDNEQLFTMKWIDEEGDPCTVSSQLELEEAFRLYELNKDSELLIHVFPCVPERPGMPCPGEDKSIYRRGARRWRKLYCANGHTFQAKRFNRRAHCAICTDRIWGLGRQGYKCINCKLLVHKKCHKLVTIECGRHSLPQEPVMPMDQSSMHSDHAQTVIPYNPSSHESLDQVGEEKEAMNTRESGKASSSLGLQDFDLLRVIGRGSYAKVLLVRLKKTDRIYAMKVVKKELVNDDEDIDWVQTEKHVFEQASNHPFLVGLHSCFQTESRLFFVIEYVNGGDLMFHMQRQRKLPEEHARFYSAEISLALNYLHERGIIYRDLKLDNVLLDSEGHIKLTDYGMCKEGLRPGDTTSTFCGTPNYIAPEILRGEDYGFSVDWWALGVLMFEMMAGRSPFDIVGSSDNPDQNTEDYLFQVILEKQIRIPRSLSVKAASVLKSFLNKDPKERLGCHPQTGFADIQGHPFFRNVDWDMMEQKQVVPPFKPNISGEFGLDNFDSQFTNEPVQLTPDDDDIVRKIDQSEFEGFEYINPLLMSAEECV

[17] = target: Activin receptor type-1B (Homo sapiens) (UniProt P36896)
[18] = target: Mitogen-activated protein kinase kinase kinase 5 (Homo sapiens) (UniProt Q99683)
[19] = target: Serine/threonine-protein kinase Nek3 (Homo sapiens) (UniProt P51956)

Measured: residual activity

Dual specificity mitogen-activated protein kinase kinase 3 (Homo sapiens), sequence (P46734 whole entry): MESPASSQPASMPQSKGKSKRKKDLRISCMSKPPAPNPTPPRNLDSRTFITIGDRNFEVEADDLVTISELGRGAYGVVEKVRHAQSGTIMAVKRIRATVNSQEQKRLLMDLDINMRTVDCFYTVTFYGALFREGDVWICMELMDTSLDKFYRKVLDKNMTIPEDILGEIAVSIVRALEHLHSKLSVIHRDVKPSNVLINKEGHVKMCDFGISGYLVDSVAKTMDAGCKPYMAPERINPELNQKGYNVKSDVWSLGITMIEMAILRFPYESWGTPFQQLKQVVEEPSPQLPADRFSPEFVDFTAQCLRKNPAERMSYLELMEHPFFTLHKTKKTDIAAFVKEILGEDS
Glycogen synthase kinase-3 alpha (Homo sapiens), sequence (P49840 2-483 limits assumed): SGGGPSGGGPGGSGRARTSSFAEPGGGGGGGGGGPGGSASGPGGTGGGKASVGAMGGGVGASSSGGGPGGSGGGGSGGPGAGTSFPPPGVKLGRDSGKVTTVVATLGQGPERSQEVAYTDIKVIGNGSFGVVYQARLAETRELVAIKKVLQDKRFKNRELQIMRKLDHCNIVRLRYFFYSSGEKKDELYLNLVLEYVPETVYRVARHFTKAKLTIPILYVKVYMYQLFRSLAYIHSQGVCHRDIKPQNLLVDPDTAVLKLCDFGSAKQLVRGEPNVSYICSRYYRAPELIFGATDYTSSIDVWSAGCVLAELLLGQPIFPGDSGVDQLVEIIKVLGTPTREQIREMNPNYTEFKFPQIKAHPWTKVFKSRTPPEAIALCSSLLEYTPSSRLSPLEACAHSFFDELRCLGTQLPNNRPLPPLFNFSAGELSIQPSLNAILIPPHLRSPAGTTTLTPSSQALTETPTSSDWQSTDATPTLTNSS
Cyclin-dependent kinase 4 (Homo sapiens), sequence (P11802 whole entry): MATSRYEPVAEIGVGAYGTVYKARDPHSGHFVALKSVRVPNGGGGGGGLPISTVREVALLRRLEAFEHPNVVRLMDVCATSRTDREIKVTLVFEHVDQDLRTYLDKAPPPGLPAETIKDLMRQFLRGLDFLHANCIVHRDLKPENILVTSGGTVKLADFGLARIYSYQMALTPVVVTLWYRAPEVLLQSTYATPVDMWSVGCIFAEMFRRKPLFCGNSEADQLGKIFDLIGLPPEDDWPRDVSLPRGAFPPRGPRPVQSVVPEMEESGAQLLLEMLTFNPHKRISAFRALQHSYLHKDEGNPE
Tyrosine-protein kinase ABL1 (Homo sapiens), sequence (P00519 whole entry): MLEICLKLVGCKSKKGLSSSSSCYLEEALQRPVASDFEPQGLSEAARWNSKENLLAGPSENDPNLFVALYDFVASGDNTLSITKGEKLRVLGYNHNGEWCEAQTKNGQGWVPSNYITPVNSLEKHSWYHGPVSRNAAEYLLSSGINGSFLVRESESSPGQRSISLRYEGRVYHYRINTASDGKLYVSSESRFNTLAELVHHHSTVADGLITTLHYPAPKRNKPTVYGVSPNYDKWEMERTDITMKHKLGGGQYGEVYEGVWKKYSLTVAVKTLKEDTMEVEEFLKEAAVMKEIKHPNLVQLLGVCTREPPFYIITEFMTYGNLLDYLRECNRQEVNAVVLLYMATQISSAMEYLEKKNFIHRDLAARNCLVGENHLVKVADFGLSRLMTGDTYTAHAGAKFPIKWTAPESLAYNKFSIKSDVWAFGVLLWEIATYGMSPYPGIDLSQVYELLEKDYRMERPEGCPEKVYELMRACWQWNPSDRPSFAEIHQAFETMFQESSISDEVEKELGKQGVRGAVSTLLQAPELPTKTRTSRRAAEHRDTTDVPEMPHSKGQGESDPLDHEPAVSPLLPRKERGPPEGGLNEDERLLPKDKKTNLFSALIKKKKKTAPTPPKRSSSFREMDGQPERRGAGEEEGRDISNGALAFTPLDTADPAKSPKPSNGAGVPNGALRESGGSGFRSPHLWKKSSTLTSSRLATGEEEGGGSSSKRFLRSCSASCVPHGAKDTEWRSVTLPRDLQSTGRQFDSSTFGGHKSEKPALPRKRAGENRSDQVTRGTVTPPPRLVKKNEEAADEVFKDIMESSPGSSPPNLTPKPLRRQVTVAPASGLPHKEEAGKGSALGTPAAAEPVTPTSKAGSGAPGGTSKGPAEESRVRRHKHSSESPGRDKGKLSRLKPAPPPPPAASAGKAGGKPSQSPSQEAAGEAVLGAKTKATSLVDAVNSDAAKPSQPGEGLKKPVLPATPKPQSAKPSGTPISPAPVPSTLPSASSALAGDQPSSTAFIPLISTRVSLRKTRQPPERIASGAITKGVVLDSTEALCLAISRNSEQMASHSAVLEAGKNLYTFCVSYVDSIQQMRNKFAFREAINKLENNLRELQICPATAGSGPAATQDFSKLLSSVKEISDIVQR
Calcium/calmodulin-dependent protein kinase type 1D (Homo sapiens), sequence (Q8IU85 whole entry, looked up): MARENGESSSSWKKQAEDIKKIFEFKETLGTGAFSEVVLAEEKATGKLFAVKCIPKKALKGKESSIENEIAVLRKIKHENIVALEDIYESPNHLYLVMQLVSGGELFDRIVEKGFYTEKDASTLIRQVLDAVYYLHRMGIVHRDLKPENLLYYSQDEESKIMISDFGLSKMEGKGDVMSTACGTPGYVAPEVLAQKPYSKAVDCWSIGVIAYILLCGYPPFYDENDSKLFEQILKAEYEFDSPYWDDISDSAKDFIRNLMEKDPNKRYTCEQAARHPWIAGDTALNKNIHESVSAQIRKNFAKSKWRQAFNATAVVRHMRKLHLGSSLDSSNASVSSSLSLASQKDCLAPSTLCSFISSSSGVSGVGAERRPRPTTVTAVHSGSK
Phosphatidylinositol 4-phosphate 5-kinase type-1 gamma (Homo sapiens), sequence (O60331 whole entry): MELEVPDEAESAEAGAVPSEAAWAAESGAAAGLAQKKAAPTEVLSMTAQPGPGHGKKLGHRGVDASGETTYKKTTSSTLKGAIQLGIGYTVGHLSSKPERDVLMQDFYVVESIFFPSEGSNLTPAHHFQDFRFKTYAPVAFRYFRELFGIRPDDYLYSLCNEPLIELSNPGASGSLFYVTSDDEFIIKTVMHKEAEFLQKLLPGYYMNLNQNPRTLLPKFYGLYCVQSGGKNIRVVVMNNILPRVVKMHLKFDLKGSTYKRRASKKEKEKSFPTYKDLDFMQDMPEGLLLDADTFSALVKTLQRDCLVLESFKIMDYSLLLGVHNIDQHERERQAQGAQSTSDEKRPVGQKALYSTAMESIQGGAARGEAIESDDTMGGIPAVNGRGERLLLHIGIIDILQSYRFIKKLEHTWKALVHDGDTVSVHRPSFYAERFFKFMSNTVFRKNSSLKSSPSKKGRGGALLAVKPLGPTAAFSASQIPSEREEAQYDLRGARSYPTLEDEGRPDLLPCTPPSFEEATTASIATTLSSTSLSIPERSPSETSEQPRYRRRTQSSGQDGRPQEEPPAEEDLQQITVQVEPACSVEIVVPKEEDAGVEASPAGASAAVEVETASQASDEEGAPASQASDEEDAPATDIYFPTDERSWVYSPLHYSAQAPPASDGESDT
Tyrosine-protein kinase ITK/TSK (Homo sapiens), sequence (Q08881 whole entry): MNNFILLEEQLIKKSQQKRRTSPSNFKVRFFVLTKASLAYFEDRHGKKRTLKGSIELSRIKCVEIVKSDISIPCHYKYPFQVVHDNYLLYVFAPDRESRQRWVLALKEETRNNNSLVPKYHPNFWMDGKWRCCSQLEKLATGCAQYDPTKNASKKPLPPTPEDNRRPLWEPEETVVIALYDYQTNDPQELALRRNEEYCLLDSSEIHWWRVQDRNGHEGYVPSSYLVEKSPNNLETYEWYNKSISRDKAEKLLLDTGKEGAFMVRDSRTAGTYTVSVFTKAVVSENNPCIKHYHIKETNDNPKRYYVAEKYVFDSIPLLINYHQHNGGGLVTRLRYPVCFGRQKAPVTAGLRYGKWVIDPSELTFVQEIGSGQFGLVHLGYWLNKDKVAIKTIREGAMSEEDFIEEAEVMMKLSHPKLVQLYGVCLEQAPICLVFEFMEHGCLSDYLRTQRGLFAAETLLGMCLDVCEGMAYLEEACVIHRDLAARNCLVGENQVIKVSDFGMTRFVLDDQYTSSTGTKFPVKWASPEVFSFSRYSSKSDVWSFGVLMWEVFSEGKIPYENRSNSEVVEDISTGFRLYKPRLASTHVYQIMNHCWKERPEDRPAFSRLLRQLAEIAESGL
Activin receptor type-1B (Homo sapiens), sequence (P36896 whole entry): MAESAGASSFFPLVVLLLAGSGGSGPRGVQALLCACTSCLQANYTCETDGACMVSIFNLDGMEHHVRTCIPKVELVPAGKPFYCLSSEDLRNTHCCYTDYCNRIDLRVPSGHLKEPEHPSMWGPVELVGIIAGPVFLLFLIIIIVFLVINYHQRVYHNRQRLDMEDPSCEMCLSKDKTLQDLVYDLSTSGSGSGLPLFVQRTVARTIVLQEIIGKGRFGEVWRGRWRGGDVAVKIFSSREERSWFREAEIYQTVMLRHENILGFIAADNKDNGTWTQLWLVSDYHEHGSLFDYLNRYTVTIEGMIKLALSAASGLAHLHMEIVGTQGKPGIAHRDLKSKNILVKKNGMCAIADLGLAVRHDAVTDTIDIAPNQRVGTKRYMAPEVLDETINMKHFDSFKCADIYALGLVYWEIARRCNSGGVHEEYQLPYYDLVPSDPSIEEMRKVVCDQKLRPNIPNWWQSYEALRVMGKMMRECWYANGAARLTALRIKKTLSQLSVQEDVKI
Dual specificity protein kinase CLK1 (Homo sapiens), sequence (P49759 whole entry, looked up): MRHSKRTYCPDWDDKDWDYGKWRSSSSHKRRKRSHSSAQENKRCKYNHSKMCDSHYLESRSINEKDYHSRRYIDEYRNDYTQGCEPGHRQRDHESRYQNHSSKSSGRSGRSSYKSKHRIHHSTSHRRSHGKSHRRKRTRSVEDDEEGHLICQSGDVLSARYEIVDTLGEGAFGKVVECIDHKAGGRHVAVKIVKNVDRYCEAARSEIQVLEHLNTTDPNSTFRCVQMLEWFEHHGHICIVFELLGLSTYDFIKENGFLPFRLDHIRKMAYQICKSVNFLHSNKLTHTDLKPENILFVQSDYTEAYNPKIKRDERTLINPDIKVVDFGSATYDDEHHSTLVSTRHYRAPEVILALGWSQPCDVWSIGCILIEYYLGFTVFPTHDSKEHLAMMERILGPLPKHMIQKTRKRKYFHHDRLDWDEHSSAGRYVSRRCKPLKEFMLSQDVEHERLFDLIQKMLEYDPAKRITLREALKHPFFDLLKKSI

Cc1c[nH]c2nccc(Oc3c(F)cc(Nc4cc(Cl)nc(N)n4)cc3F)c12 [BAY-549]
inactive: [1] 92% | [2] 87% | [3] 78% | [4] 81% | [5] 66% | [6] 83% | [7] 100% | [8] 76% | [9] 100% | [10] 89% | [11] 95% | [12] 95% | [13] 94% | [14] 92% | [15] 67% | [16] 100% | [17] 87% | [18] 98% | [19] 75%

Cn1cc(Cl)c2c(Oc3c(F)cc(Nc4cc(Cl)nc(N)n4)cc3F)ccnc21 [BAY-4900]
inactive: [1] 93% | [2] 100% | [3] 93% | [4] 97% | [5] 99% | [6] 96% | [7] 94% | [8] 96% | [9] 80% | [10] 89% | [11] 99% | [12] 100% | [13] 100% | [14] 100% | [15] 85% | [16] 100% | [17] 98% | [18] 97% | [19] 91%
